Among the test systems are SK-MEL-2; SW-620; HT-29; MOLT-4; UACC-257; A549; SNB-75; OVCAR-4; OVCAR-8; SF-295; HCT-116; EKVX; SNB-19; HL-60; LOX IMVI; OVCAR-3; U-251; IGROV-1; MDA-MB-435.
Holding throughout (assay): NCI anticancer screen, dose series, 48 h

SMILES strings stand for the structures.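 Briefly, cells in 96-well plates were exposed to five compound concentrations for 48 h, and endpoints were estimated by linear interpolation. GI50 is the concentration that inhibits growth by half.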 The source made the active and inactive calls. Rule as the data show it: active = GI50 up to about 1.1 µM and inactive = higher.

Consider `O=C1Nc2ccc(Cl)c(I)c2C1=O`, for which the GI50 with SK-MEL-2 is 18.7 µM (inactive); in the assay with SW-620, 19.5 µM (inactive); with HT-29 it was 29.6 µM (inactive); in the assay with MOLT-4, 22.9 µM (inactive); in the assay on UACC-257 it was 17.9 µM (inactive); in the assay with A549, 44.7 µM (inactive). In addition, the GI50 is 22.8 µM (inactive) in the assay with SNB-75; 18.1 µM (inactive) in the assay on OVCAR-4; 18.7 µM (inactive) in the assay on OVCAR-8; 17.8 µM (inactive) with SF-295; 15.2 µM (inactive) with HCT-116; 5.62 µM (inactive) with EKVX. For the same compound, the GI50 is 24.5 µM (inactive) in the assay with SNB-19; 16.1 µM (inactive) in the assay with HL-60; 18.5 µM (inactive) with LOX IMVI; 21.1 µM (inactive) with OVCAR-3; 17.2 µM (inactive) in the assay with U-251; 17.1 µM (inactive) in the assay on IGROV-1.

On to `CC1=CCCC(OC(N)=O)C1` (centres undefined), for which the GI50 with SK-MEL-2, in the assay with SW-620, in the assay with HT-29, in the assay with MOLT-4, with UACC-257 and with A549 was > 100 µM (inactive) throughout. Besides, the GI50 with SNB-75 was 97.7 µM (inactive); with OVCAR-4 it was > 100 µM (inactive); in the assay on OVCAR-8, > 100 µM (inactive); in the assay on SF-295, > 100 µM (inactive); in the assay with HCT-116 it was > 100 µM (inactive); in the assay on EKVX, > 100 µM (inactive). The GI50 with SNB-19, with HL-60, with LOX IMVI, in the assay with OVCAR-3, in the assay with U-251 and in the assay on IGROV-1 was > 100 µM (inactive) throughout.

On to `CCOC(=O)C[C@@]12CCCN[C@]1(C)CCc1ccccc12`, for which the GI50 in the assay with SK-MEL-2, in the assay with SW-620, with HT-29, in the assay on MOLT-4, with A549 and with SNB-75 was > 100 µM (inactive) in each case. In addition, the GI50 in the assay on OVCAR-4, with OVCAR-8, with SF-295, in the assay on HCT-116, with EKVX and with SNB-19 was > 100 µM (inactive) throughout. Also, the GI50 in the assay with HL-60, with LOX IMVI, in the assay on OVCAR-3, with U-251 and in the assay on IGROV-1 was > 100 µM (inactive) each time.

`C=CC(C)(C)[C@@]12CC3C(=O)N[C@@H](Cc4ccccc4)C(=O)N3[C@@H]1N(C(C)=O)c1ccccc12` (some centres undefined): the GI50 was > 100 µM (inactive) in the assay on SK-MEL-2; 88.7 µM (inactive) with SW-620; 62.2 µM (inactive) with HT-29; 27.4 µM (inactive) in the assay on MOLT-4; 68.4 µM (inactive) in the assay on UACC-257; 74.1 µM (inactive) with A549. Besides, the GI50 with SNB-75 is 59.8 µM (inactive); with OVCAR-4 it was 31.8 µM (inactive); in the assay with OVCAR-8 it was 73.5 µM (inactive); in the assay with SF-295, 97.3 µM (inactive); in the assay with HCT-116 it was > 100 µM (inactive); in the assay on EKVX it was 96.4 µM (inactive). For the same compound, the GI50 in the assay with SNB-19 is > 100 µM (inactive); in the assay with HL-60, 30.3 µM (inactive); with LOX IMVI, > 100 µM (inactive); in the assay with OVCAR-3, 48.6 µM (inactive); with U-251, 93.3 µM (inactive); in the assay on IGROV-1, > 100 µM (inactive).

As for `Oc1ccc(O)c(-n2cccn2)c1-n1cccn1`, the GI50 was > 100 µM (inactive) in the assay on SK-MEL-2; 44.6 µM (inactive) in the assay on SW-620; > 100 µM (inactive) in the assay with HT-29; > 10 µM (inactive) with MOLT-4; > 100 µM (inactive) with A549; > 100 µM (inactive) in the assay with SNB-75. In addition, the GI50 is > 100 µM (inactive) in the assay with OVCAR-4; > 100 µM (inactive) in the assay with OVCAR-8; 37.2 µM (inactive) with SF-295; > 100 µM (inactive) with EKVX; > 100 µM (inactive) in the assay with SNB-19; > 10 µM (inactive) in the assay on HL-60. Further, the GI50 with LOX IMVI, in the assay with OVCAR-3, with U-251 and in the assay with IGROV-1 was > 100 µM (inactive) throughout.

With `CCCC(=O)/C=C/S/C=C/C(=O)CCC`, the GI50 in the assay with SK-MEL-2 is 27.5 µM (inactive); in the assay on SW-620, 2.28 µM (inactive); in the assay on MDA-MB-435, 5.46 µM (inactive); in the assay on HT-29, 3.26 µM (inactive); in the assay with UACC-257, 2.27 µM (inactive); in the assay with A549 it was 28.3 µM (inactive). Besides, the GI50 in the assay with SNB-75 was 27.2 µM (inactive); in the assay on OVCAR-4, 4.42 µM (inactive); in the assay on OVCAR-8, 2.65 µM (inactive); with SF-295, 23.9 µM (inactive); with HCT-116, 1.65 µM (inactive); with EKVX it was 3.29 µM (inactive). Besides, the GI50 is 21.8 µM (inactive) in the assay on SNB-19; 2.38 µM (inactive) in the assay with LOX IMVI; 4.09 µM (inactive) in the assay on OVCAR-3; 14.3 µM (inactive) in the assay with U-251; 21.6 µM (inactive) in the assay on IGROV-1.

As to `COc1ccc(N[S+]([O-])CCCc2ccccc2)cc1` (centres undefined), the GI50 was > 100 µM (inactive) with SK-MEL-2; > 100 µM (inactive) in the assay with SW-620; > 100 µM (inactive) in the assay on MDA-MB-435; > 100 µM (inactive) in the assay with HT-29; > 100 µM (inactive) in the assay with MOLT-4; 65 µM (inactive) in the assay with UACC-257. Besides, the GI50 in the assay on A549 is 65 µM (inactive); with OVCAR-4, > 100 µM (inactive); in the assay with OVCAR-8, > 100 µM (inactive); with SF-295, > 100 µM (inactive); with HCT-116, > 100 µM (inactive); in the assay with EKVX it was > 100 µM (inactive). The GI50 in the assay with SNB-19 was > 100 µM (inactive); in the assay with HL-60, 67.3 µM (inactive); in the assay with LOX IMVI, > 100 µM (inactive); in the assay on OVCAR-3, 88.7 µM (inactive); with U-251, 72.3 µM (inactive); in the assay with IGROV-1 it was 72.6 µM (inactive).

With `C#CCN(N=O)C(=O)ON1C(=O)CCC1=O`, the GI50 in the assay with SK-MEL-2, with SW-620, in the assay with HT-29, in the assay on MOLT-4, with UACC-257 and in the assay on A549 was > 100 µM (inactive) in each case. The GI50 with SNB-75, with OVCAR-4, with OVCAR-8, in the assay on SF-295, in the assay with HCT-116 and in the assay with EKVX was > 100 µM (inactive) throughout. Further, the GI50 was > 100 µM (inactive) in the assay with SNB-19; > 100 µM (inactive) with HL-60; > 100 µM (inactive) with LOX IMVI; > 100 µM (inactive) in the assay with OVCAR-3; 74.8 µM (inactive) with U-251; > 100 µM (inactive) in the assay on IGROV-1.

In the case of `FC(F)(F)c1ccccc1/C=N/C12CC3CC(CC(C3)C1)C2`, the GI50 in the assay on SK-MEL-2, in the assay with SW-620, in the assay with HT-29, in the assay with MOLT-4, in the assay with UACC-257 and in the assay on A549 was > 100 µM (inactive) each time. Besides, the GI50 in the assay on SNB-75 is 86.1 µM (inactive); in the assay on OVCAR-4, > 100 µM (inactive); with OVCAR-8 it was > 100 µM (inactive); in the assay on SF-295, > 100 µM (inactive); in the assay on HCT-116 it was > 100 µM (inactive); in the assay on EKVX, > 100 µM (inactive). Moreover, the GI50 in the assay on SNB-19 was 0.986 µM (active); with HL-60, > 100 µM (inactive); in the assay with LOX IMVI it was > 100 µM (inactive); in the assay on OVCAR-3 it was > 100 µM (inactive); in the assay on U-251, > 100 µM (inactive); with IGROV-1, > 100 µM (inactive).

In the case of `COC(=O)CCC12CCC(=O)C1[C@@H](C(=O)OC)C[C@H]2C(=O)OC` (some centres undefined), the GI50 in the assay on SK-MEL-2, in the assay with SW-620, in the assay on HT-29, with MOLT-4, with UACC-257 and with A549 was > 100 µM (inactive) each time. Further, the GI50 in the assay on SNB-75, with OVCAR-4, in the assay on OVCAR-8, with SF-295, in the assay on HCT-116 and in the assay on EKVX was > 100 µM (inactive) in each case. Also, the GI50 in the assay with SNB-19, in the assay on HL-60, in the assay on LOX IMVI, in the assay with OVCAR-3, in the assay with U-251 and in the assay with IGROV-1 was > 100 µM (inactive) in each case.

As to `O=S(=O)(c1ccccc1)N1N=C2c3ccccc3CCC[C@H]2C1c1ccccc1` (some centres undefined), the GI50 with SK-MEL-2 is > 100 µM (inactive); in the assay with SW-620 it was > 100 µM (inactive); in the assay with HT-29, > 100 µM (inactive); with MOLT-4, > 87.7 µM (inactive); with UACC-257, > 100 µM (inactive); in the assay with A549, > 100 µM (inactive). The GI50 is > 74.6 µM (inactive) in the assay with SNB-75; > 100 µM (inactive) with OVCAR-4; > 100 µM (inactive) with OVCAR-8; > 100 µM (inactive) in the assay on SF-295; > 100 µM (inactive) with HCT-116; > 84.3 µM (inactive) in the assay on EKVX. For the same compound, the GI50 in the assay on SNB-19 is > 100 µM (inactive); in the assay with HL-60, > 100 µM (inactive); in the assay on LOX IMVI, > 87.9 µM (inactive); with OVCAR-3, > 100 µM (inactive); in the assay on U-251, > 100 µM (inactive); with IGROV-1 it was > 100 µM (inactive).
